Measured values reported in PubChem BioAssay AID624491 (Broad Institute, 2012).
The source made the active and inactive calls.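 How the source made its calls: active means fitted curve crossing a set activation limit at or below the highest valid dose tested; inconclusive means flat fit at 30 to 70% activation, or poor fit; inactive means the rest, including signal decreases.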

tested on: D54 ERlucT glycosylation luciferase reporter, luminescence, 24 h; assay: blockers of NLG process in reporter cells – D54 ERlucT cells, luminescence, cherry-picks, dose response (AID 624491);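 further: signal gain reflects blocked N-linked glycosylation of a luciferase reporter; actives raise luciferase signal so AC26 marks activators of the reporter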

Compound | AC26
COc1ccc2c(-c3cc4ccc(OCc5ccc(F)cc5)cc4oc3=O)cc(=O)oc2c1 | 4410 nM
N#Cc1c(N)n(CCc2ccc(F)cc2)c2nc3ccccc3nc12 | 1590 nM
O=[N+]([O-])c1cc(S(=O)(=O)C(F)(F)F)ccc1Sc1nc2ccccc2[nH]1 | 4570 nM
O=C(NCCN1C(=O)S/C(=C\c2ccccc2F)C1=O)C1=COCCO1 | 52.9 nM
CN(C)S(=O)(=O)c1ccc(N2CCCC2)c(C(=O)Nc2nc3ccc(F)cc3s2)c1 | 1540 nM
CC(=O)c1cccc(-c2ccnc3c2CC(C(=O)NCc2ccccc2)O3)c1 (centres undefined) | 657 nM
C=CCn1cccc(/C=C/C(=O)c2ccc(C(C)(C)C)cc2)c1=S | 1290 nM
O=C(N/N=C/c1ccccn1)c1cc(-c2ccncc2)nc2ccccc12 | 499 nM
O=C(NCc1ccco1)c1nn2c(C(F)(F)F)cc(-c3cccs3)nc2c1Br | 3250 nM
O=S(=O)([N-]c1nc2ccccc2nc1-n1cc[n+](Cc2ccccc2)c1)c1ccc(Br)cc1 | 236 nM
CCOCCCNC(=O)c1cc2c(=O)n(CC)c3ccccc3c2s1 | 8290 nM
Cc1ccc2c(c1)C(=O)N1[C@H]3c4cc(Br)ccc4OC[C@@H]3[C@H](c3ccccc3)[C@]1(C)C(=O)N2 | 689 nM
Cc1nnc(NC(=O)CSc2nc(C(C)C)nc3ccccc23)s1 | 971 nM
CCn1c2ccccc2c2cc(/C=N/NC(=O)c3ccc(O)cc3)ccc21 | 2160 nM
COc1cc2c(cc1OC)C(c1ccccc1)N(C(=O)c1ccccc1)CC2 (centres undefined) | 869 nM
CC[C@]12c3[nH]c4cc(CCC(=O)N(C)C)ccc4c3CCN1C(=O)[C@@H](CC(=O)NC/C=C(\C)CCC=C(C)C)C[C@@H]2C(=O)N1CCN(C(=O)c2ccco2)CC1 | 2860 nM
COc1ccc(C(=O)N2CCN(S(=O)(=O)c3ccc(C)cc3C)CC2)cc1S(=O)(=O)N1CCOCC1 | 5770 nM
COC(=O)c1ccc(C(=O)NC2CC(C)(C)Cc3c2cnn3-c2ccc(F)cc2)nc1 (centres undefined) | 4170 nM
CCCCNC(=O)c1cc(-c2ccc(F)cc2)on1 | 3450 nM
Cc1cc(=O)[nH]c2c(C)cc(S(=O)(=O)N3CCCCC3)cc12 | 4410 nM
CC1(C(=O)NCc2ccccc2)Cc2c(-c3cccc(C(N)=O)c3)ccnc2O1 (centres undefined) | 2100 nM
Cc1c(Cl)cccc1N=Cc1ccc([N+](=O)[O-])s1 | 1870 nM
O=C(NCc1ccco1)C1CC(c2ccc(C(F)(F)F)cc2)=NO1 (centres undefined) | 9730 nM
COc1cc(C#Cc2ccc3cc(CCCO)oc(=O)c3c2)cc(OC)c1 | 161 nM
COc1ccc(NCC(=O)n2c(C)c(C)c3ccccc32)cc1 | 3640 nM
COc1ccc(OC)c2nc3c(C(=O)NCCN(C)C)cccc3nc12 | 187 nM

Compound | AC26
CC(=O)OC12COC1CC(O)C1(C)C(=O)C(O)C3=C(C)C(O)CC(O)(C(OC(=O)c4ccccc4)C21)C3(C)C (centres undefined) | 1120 nM
COc1cccc(OCc2nc3ncc(Br)cc3[nH]2)c1 | 1810 nM
Oc1ccc(-c2csc(-c3c[nH]c4ccccc34)n2)c(O)c1 | 3410 nM
c1ccc2sc(Sc3ncnc4sccc34)nc2c1 | 1480 nM
O=C(CCl)Nc1cn(-c2ccccc2)nc1-c1ccc(F)cc1 | 3860 nM
COc1cc2ccccc2cc1C(=O)N/N=C/c1cccs1 | 232 nM
Cc1cc(C)n(-c2nnc3n2N=C(c2c[nH]c4ccccc24)CS3)n1 | 3510 nM
CNc1ccc(Br)cc(C(=O)/C=C/c2cccc(OC)c2OC)c1=O | 2220 nM
C[C@@]12C(=O)Nc3cc(F)ccc3C(=O)N1[C@H]1c3ccccc3OC[C@@H]1[C@@H]2c1ccccc1 | 1870 nM
O=C(CCl)Nc1cccc(S(=O)(=O)NC2=NCCC2)c1 | 939 nM
CCCCCCC(=O)N(O)C1CC(=O)N(Cc2ccccc2)C1=O (centres undefined) | 6200 nM
CN(C)Cc1c(C(=O)N/N=C/c2ccccc2OCc2c(F)cccc2Cl)nnn1-c1nonc1N | 4210 nM
COc1cc(C2c3cc4c(cc3OC(Nc3ccc(C(=O)O)cc3)C2C)OCO4)cc(OC)c1OC (centres undefined) | 10700 nM
CC(=O)C1=C(O)C(=O)N(c2ccc(Br)cn2)C1c1ccc(Br)cc1 (centres undefined) | 491 nM
COCCCNC(=O)c1ccc(-c2c(C)noc2C)c2ccoc12 | 4060 nM
COc1cc(C(=O)N/N=C/c2ccccn2)cc(OC)c1OC | 1160 nM
CN(Cc1ccccc1)c1nc2c(c(=O)[nH]c(=O)n2C)n1CCCc1ccccc1 | 2830 nM
C[C@@]12C(=O)Nc3ccc(F)cc3C(=O)N1[C@H]1c3cc(Cl)ccc3OC[C@@H]1[C@@H]2c1ccccc1 | 1070 nM
CCNc1ccc(C(=O)OCC)cc1NC(=O)c1cccc(N(C)C)c1 | 3160 nM
O=c1cc(-c2ccccc2)nc2cc(-c3ccc(F)cc3)[nH]n12 | 4270 nM
C=CCOc1ccc2nc(NC(=O)OC)[nH]c2c1 | 414 nM
COc1cc(/C=N/NC(=O)c2cc(-c3cccn3C)n[nH]2)cc(OC)c1OC | 1730 nM
COc1cc(/C=N/NC(=O)c2cc(-c3c(C)nn(-c4ccccc4)c3C)n[nH]2)ccc1O | 1390 nM
Cc1c(C(=O)C(=O)N2c3ccc(F)cc3CCC2C)c2ccccc2n1C (centres undefined) | 5780 nM
COc1ccccc1-c1csc(C(NC(C)=O)c2ccccc2)n1 (centres undefined) | < 1.2 nM
Cc1ccc(S(=O)(=O)N(C)C[C@@H]2Oc3ccc(NC(=O)CCC(F)(F)F)cc3CC(=O)N([C@@H](C)CO)C[C@@H]2C)cc1 | 1470 nM

Compound | AC26
CN(C)CCCN1C(=O)c2cccc3cccc(c23)C1=O | 3880 nM
O=C(N/N=C/c1ccccc1)c1sccc1OCc1ccc(F)cc1 | 2600 nM
COC(=O)C1=C(c2cc3ccccc3o2)C[C@@H]2CC[C@H]1N2C(=O)N1CCOCC1 | > 19500 nM (inactive)
COc1cc(-c2cc3nc(NCCOc4ccccc4)ccn3n2)cc(OC)c1OC | 2350 nM
CCOC(=O)c1[nH]c(C)c(C(=O)Nc2cc(OC)ccc2OC)c1C | 322 nM
C=CCn1c(SCC(=O)c2[nH]c(C)c(C(=O)OC)c2C)nc2scc(-c3ccc(OC)c(OC)c3)c2c1=O | 703 nM
O=C(c1cccc(N2CCCC2=O)c1)N1CCN(c2cccc(Cl)c2)CC1 | 2600 nM
CN(C)/N=C/C=C1\CCC/C(=C\c2ccc(F)c(F)c2)C1=O | 966 nM
NC(=O)CC(NC(=O)Cc1ccc(Cl)cc1)c1ccc(NC2CCN(Cc3ccccc3)CC2)c([N+](=O)[O-])c1 (centres undefined) | 480 nM
Cc1cccc(NC(=O)c2cnn3ccccc23)c1C | 9570 nM
Cc1cc(=O)oc2cc(OCC(=O)N3c4ccccc4CC3C)ccc12 (centres undefined) | 1090 nM
N=c1c(S(=O)(=O)c2ccc(Cl)cc2)cc2c(=O)n3ccccc3nc2n1CCc1ccccc1 | 122 nM
C=CCN1c2ccccc2[C@]23C[C@@H](C(=O)OC)N(C(=O)c4ccc(Br)cc4)C2=NC(C(=O)OC)=C(C(=O)OC)[C@H]13 | 6060 nM
COc1ccc(-n2c(=S)[nH]c3cc(C(=O)Nc4ccc(F)cc4)ccc3c2=O)c(OC)c1 | 4550 nM
O=C(/C=C/Sc1ccccc1)c1ccc(Cl)cc1 | 727 nM
O=C(COC(=O)c1cccc(Br)c1)Nc1cccc2c1C(=O)c1ccccc1C2=O | 4290 nM
COc1cccc(-c2cnc3c(NC(C)=O)cc(-c4cc(F)ccc4OC)cn23)c1 | 1600 nM
Cc1cc(Br)cc2c(C(=O)Nc3c(C)n(C)n(-c4ccccc4)c3=O)cc(-c3cccs3)nc12 | 3650 nM
Cc1ccc(NCCN(C)C)c2c(=O)c3cc(O)ccc3sc12 | 84.5 nM
CCc1nc2ccc(C(=O)NCCc3c[nH]c4ccccc34)cn2c1N(C=O)CCC(C)C | 343 nM
Cc1ccc2nc3c(cc(C(N)=S)c(=N)n3CCCOC(C)C)c(=O)n2c1 | 1140 nM
Cc1ccc(COc2cccc(/C=N/NC(=O)c3nnn(-c4nonc4N)c3C)c2)cc1 | 1160 nM
COCCNC(=S)N1CCc2cc(OC)c(OC)cc2C1c1cccs1 (centres undefined) | 455 nM
COc1ccc(C(=O)Nc2ccc3[nH]c(-c4cccc(OC)c4)cc(=O)c3c2)cc1 | 330 nM
CC(CC(=O)Nc1ccc2c(c1)c(=O)n(C)n2-c1cccs1)c1ccccc1 (centres undefined) | 6270 nM
O=S(=O)([N-]c1nc2ccccc2nc1-n1cc[n+](Cc2ccccc2)c1)c1ccccc1 | 520 nM

Compound | AC26
Cc1nnc2c(NC3CCCCC3)nc3ccccc3n12 | 2760 nM
Oc1cc(NCc2ccc(Cl)cc2)cc2cccnc12 | 6410 nM
CN(C)C(CNC(=O)CSc1nc2sc3c(c2c(=O)n1C)CCCC3)c1ccccc1 (centres undefined) | 387 nM
COC(=O)c1cc(C(=O)c2c(C)cc3ccccn23)cc([N+](=O)[O-])c1 | 1770 nM
Cc1c2cnccc2c(C)c2c1oc1ccccc12 | 2820 nM
COc1ccc2c(c1)[C@H]1[C@H](CO2)[C@H](c2ccccc2)[C@]2(C)C(=O)Nc3ccc(Cl)cc3C(=O)N12 | 426 nM
COc1cc([C@@H]2c3cc4c(cc3[C@@H](OC)[C@H]3COC(=O)[C@H]23)OCO4)cc(OC)c1O | 501 nM
CCn1c2ccccc2c2cc(NC(=O)COC(=O)c3ccc(O)cc3)ccc21 | 5820 nM
COc1ccc2nc3n(c(=O)c2c1)-c1cc2ccccc2cc1C(=O)NC3Cc1ccccc1 (centres undefined) | > 19500 nM (inactive)
C=CCNc1nc(Nc2ccc(OC)c(OC)c2)c2sc(-c3ccccc3)cc2n1 | 513 nM
Cc1[nH][nH]c(=O)c1C(c1ccc(-c2ccc(Cl)c(Cl)c2)o1)c1c(C)[nH][nH]c1=O | 917 nM
COc1ccc(C(C)(O)c2nc(-c3ccc(F)cc3OC)cs2)cc1 (centres undefined) | 5930 nM
CC(=O)NC(=C(Cl)Cl)S(=O)(=O)c1ccccc1 | 1080 nM
Cc1noc(C)c1COc1cccc(C(=O)OC(C)C(=O)Nc2ccc3c(c2)OCO3)c1 (centres undefined) | 40.4 nM
COc1ccc2c(c1)OC[C@H]1[C@H]2N2C(=O)c3cc(OC)ccc3NC(=O)[C@@]2(C)[C@H]1c1ccccc1 | 1360 nM
O=c1cc(N/N=C/c2ccccc2)[nH]c(=O)[nH]1 | 14400 nM
CCCOC(=O)c1[nH]c2c(c1C)C(=O)CC(c1cccs1)C2 (centres undefined) | 623 nM
COc1cccc(-c2nc(N3CCN(C)CC3)c3ccccc3n2)c1O | 3610 nM
COc1ccc(/C=N/NC(=O)c2cccc(NC(=O)c3ccccc3Cl)c2)cc1 | 5130 nM
CCC12CCC3c4ccc(O)cc4CCC3C1CC(O)C2O (centres undefined) | 10000 nM
CN(C)S(=O)(=O)c1ccc(N2CCCC2)c(C(=O)Nc2cccc(F)c2)c1 | 931 nM
CNc1ccc(Br)cc(C(=O)/C=C/c2ccc(OC)cc2)c1=O | 2660 nM
Cn1cccc1/C=C1\C(=O)NC(=O)N(Cc2ccccc2)C1=O | 267 nM
CCOc1ccc(N2CCc3c(C)nc(SC)nc32)cc1 | 2650 nM
COC(=O)c1cc(OC)c(OC)cc1NC(=S)NC(=O)c1ccco1 | 607 nM
CCOC(=O)[C@H]1[C@H]2COc3ccc(OC)cc3[C@@H]2N2C(=O)c3cc(OC)c(OC)cc3NC(=O)[C@@]12C | 300 nM
